Consider 15 compounds from paper PMC8621172, “Manipulating Estrogenic/Anti-Estrogenic Activity of Triphenylethylenes towards Development of Novel Anti-Neoplastic SERMs” (International Journal of Molecular Sciences, 2021).

For one assay, the target named is T1, human ERα (Homo sapiens, UniProt P03372).
T1 construct: host or cells: Saccharomyces cerevisiae
T1 sequence (P03372 1-595): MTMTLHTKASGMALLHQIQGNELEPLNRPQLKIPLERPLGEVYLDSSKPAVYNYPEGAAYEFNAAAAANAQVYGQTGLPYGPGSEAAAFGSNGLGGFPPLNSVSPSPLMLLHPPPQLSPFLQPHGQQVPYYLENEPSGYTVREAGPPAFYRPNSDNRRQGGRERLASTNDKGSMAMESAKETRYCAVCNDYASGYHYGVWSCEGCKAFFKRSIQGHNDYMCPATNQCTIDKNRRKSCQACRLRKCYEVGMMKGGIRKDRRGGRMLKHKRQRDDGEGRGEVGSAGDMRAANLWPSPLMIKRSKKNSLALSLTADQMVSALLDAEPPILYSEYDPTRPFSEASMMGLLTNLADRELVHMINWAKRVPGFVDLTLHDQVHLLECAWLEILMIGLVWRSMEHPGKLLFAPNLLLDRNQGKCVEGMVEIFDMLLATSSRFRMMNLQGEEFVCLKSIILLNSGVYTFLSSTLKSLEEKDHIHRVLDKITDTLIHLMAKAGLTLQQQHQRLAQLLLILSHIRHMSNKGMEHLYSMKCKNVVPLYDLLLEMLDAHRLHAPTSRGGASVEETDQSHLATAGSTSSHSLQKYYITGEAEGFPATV
Put plainly: Yeast estrogen screen (YES) assay, agonistic activity (β-galactosidase reporter). Type of assay: cell-based. Conditions: triplicates; for EC50: YES assay; for Estrogenic Activity (relative β-galactosidase activity): compounds at 1 µM, compared to DMSO (set as 1). The method, then: All synthesized compounds were tested for their relative activity in β-galactosidase in a yeast estrogen screen (YES) assay. Compounds were tested for their relative estrogenic/anti-estrogenic activities in comparison to positive and negative controls, respectively. YES assay is a gene reporter assay where the DNA sequence of human ERα is integrated into the yeast genome completed with an expression plasmid carrying estrogen response elements (ERE) in the promoter controlling the expression of the reporter gene lacZ (encoding the enzyme β-galactosidase). In the presence of estrogenic compounds, β-galactosidase is synthesized and secreted into the medium, where it converts the chromogenic substrate chlorophenol red-β-D-galactopyranoside (CRPG) from a yellow to a red product, whose absorbance is measured. […] Therefore, we decided to test the novel compounds in an organ-specific in vitro model using the human Ishikawa endometrial adenocarcinoma cell line.
All synthesized compounds were tested for their relative β-galactosidase activity in a yeast estrogen screen (YES) assay at a concentration of 1 µM using DMSO as control (set as 1).
The yeast estrogen receptor assay was supplied by Dr. J.P. Sumpter (Brunel University, Uxbridge, UK) and was used to determine the relative transactivation activity of the human ERα as formerly described. Briefly, Saccharomyces cerevisiae stably transfected with a human ERα and an estrogen-responsive element fused to the reporter gene lacZ encoding for β-galactosidase were treated with the test substances for about 48 h. The β-galactosidase enzymatic activity was measured in a colorimetric assay using a microplate photometer by hydrolysis of the substrate chlorophenol red β-D-galactopyranoside (Roche Diagnostics, Mannheim, Germany), which leads to the formation of chlorophenol red. This can be measured as an increased absorption at 540 nm. All compounds were diluted in DMSO. […] All compounds were tested in technical quadruplicates and biological triplicates. Statistical analysis was performed by analysis of variance (ANOVA) and Tukey’s post-hoc test with the significance level of p < 0.05.

A further assay relates to MCF-7 cells. The assay can be described thus: NCI growth inhibition on MCF-7 (single dose and five-dose, SRB). It is filed as cell-based, human. The note with it: for inhibition at 10 µM / GI50: Homo sapiens, MCF7; for GI50: MCF-7, five-dose assay, 48 h; for inhibition at 10 µM / Growth Inhibition on MCF-7 (%): 10 µM. On the procedure: Compounds were submitted to the Developmental Therapeutics Program (DTP) of the National Cancer Institute (NCI). The program uses a panel of 60 human tumor cell lines representing nine tissue types, including leukemia, non-small cell lung cancer (NSCLC), melanoma, colon cancer, ovarian cancer, CNS cancer, renal cancer, prostate cancer, and breast cancer, to screen for potential new anti-cancer agents. […] Primary screening of synthesized compounds was performed by testing a single high dose of 10 µM in the full NCI-60 panel. The percent growth of treated cells relative to the no-drug control and relative to the time zero number of cells was measured, and a mean graph was provided. The percentage inhibition was then calculated by subtracting the values obtained from 100.
All compounds were subjected to the NCI in vitro disease-oriented human cells screening panel assay. The human tumor cell lines of the cancer-screening panel are grown in RPMI 1640 medium containing 5% fetal bovine serum and 2 mM L-glutamine. For a typical screening experiment, cells are inoculated into 96-well microtiter plates in 100 μL at plating densities ranging from 5000 to 40,000 cells/well depending on the doubling time of individual cell lines. After cell inoculation, the microtiter plates are incubated at 37 °C, 5% CO2, 95% air, and 100% relative humidity for 24 h prior to the addition of experimental drugs. After 24 h, two plates of each cell line are fixed in situ with TCA to represent a measurement of the cell population for each cell line at the time of drug addition. Experimental drugs are solubilized in dimethyl sulfoxide at 400-fold the desired final maximum test concentration and stored frozen prior to use. At the time of drug addition, an aliquot of frozen concentrate is thawed and diluted to twice the desired final maximum test concentration with complete medium containing 50 μg/mL gentamicin. Additional four, 10-fold, or ½ log serial dilutions are made to provide a total of five drug concentrations plus control. Aliquots of 100 μL of these different drug dilutions are added to the appropriate microtiter wells already containing 100 μL of medium, resulting in the required final drug concentrations. Following drug addition, the plates are incubated for an additional 48 h at 37 °C, 5% CO2, 95% air, and 100% relative humidity. For adherent cells, the assay is terminated by the addition of cold TCA. Cells are fixed in situ by the gentle addition of 50 μL of cold 50% (w/v) TCA (final concentration, 10% TCA) and incubated for 60 min at 4 °C. The supernatant is discarded, and the plates are washed five times with tap water and air-dried. Sulforhodamine B (SRB) solution (100 μL) at 0.4% (w/v) in 1% acetic acid is added to each well, and plates are incubated for 10 min at room temperature. After staining, unbound dye is removed by washing five times with 1% acetic acid, and the plates are air-dried. Bound stain is subsequently solubilized with a 10 mM trizma base, and the absorbance is read on an automated plate reader at a wavelength of 515 nm. For suspension cells, the methodology is the same except that the assay is terminated by fixing settled cells at the bottom of the wells by gently adding 50 μL of 80% TCA (final concentration, 16% TCA). Compounds are screened at a dose of 10 µM, hits showing mean growth inhibition over 60 cell lines >50% are escalated for 5-dose screening assay. To construct a dose-response curve, about 60 cell lines of nine tumor subpanels were incubated with five concentrations (0.01–100 μM) for each compound. Three response parameters (GI50, TGI, and LC50) were calculated for each cell line.

Where “and” joins values, the source holds several entries; their conditions need not be identical. Identical values can stand only once.

As usually defined, the EC50 is the concentration at which the effect is half-maximal. Low values mean higher potency in that assay, high ones lower potency in that assay. As a reminder, the inhibition is the percentage by which the read-out fell short of the control. For orientation: GI50 means the concentration giving 50% growth inhibition. As to `COc1ccc(C(C)=C(c2ccc(Cl)cc2)c2ccc(OCCN3CCCCCC3)cc2)cc1F` [Compound 19, E/Z-1-(2-{4-[1-(4-Chlorophenyl)-2-(3-fluoro-4-methoxyphenyl)-propenyl]-phenoxy}-ethyl)-azepane], on human ERα, the EC50 was 407 ± 86 nM; the “Estrogenic Activity (relative β-galactosidase activity)” value is 3.22 and 3.22 ± 1.22. In the assay with MCF-7 cells, this compound registered an inhibition at 10 µM of 75.9% and a GI50 of 3590 nM.
Take `COc1ccc(C(C)=C(c2ccc(Cl)cc2)c2ccc(OCCN3CCCC3)cc2)cc1` [Compound 11, E/Z-1-(2-{4-[1-(4-Chloro-phenyl)-2-(4-methoxy-phenyl)-propenyl]-phenoxy}-ethyl)-pyrrolidine]: the “Estrogenic Activity (relative β-galactosidase activity)” value at human ERα came out at 1.98 ± 0.12. Moreover, in the assay with MCF-7 cells, the inhibition at 10 µM amounted to 87% and the GI50 is 890 nM.
As for `COc1ccc(C(C)=C(c2ccc(Cl)cc2)c2ccc(OCCN3CCCC3)cc2)cc1F` [Compound 16, E/Z-1-(2-{4-[1-(4-Chlorophenyl)-2-(3-fluoro-4-methoxyphenyl)-propenyl]-phenoxy}-ethyl)-pyrrolidine], on human ERα, the “Estrogenic Activity (relative β-galactosidase activity)” value is 2.19 ± 0.71. In the assay with MCF-7 cells, this compound gave an inhibition at 10 µM of 90% and a GI50 of 2410 nM.
`COc1ccc(C(C)=C(c2ccc(Cl)cc2)c2ccc(OCCN(C)C)cc2)cc1F` [Compound 20, E/Z-(2-{4-[1-(4-Chlorophenyl)-2-(3-fluoro-4-methoxyphenyl)-propenyl]-phenoxy}-ethyl)-dimethyl-amine]: the “Estrogenic Activity (relative β-galactosidase activity)” value at human ERα was determined as 2.40 ± 0.64. In the assay on MCF-7 cells, this compound registered an inhibition at 10 µM of 68.2%.
For `COc1cc(C(C)=C(c2ccc(Cl)cc2)c2ccc(OCCCN(C)C)cc2)ccc1F` [Compound 22, E/Z-(3-{4-[1-(4-Chlorophenyl)-2-(4-fluoro-3-methoxyphenyl)-propenyl]-phenoxy}-propyl)-dimethyl-amine], on human ERα, the “Estrogenic Activity (relative β-galactosidase activity)” value was found to be 1.87 ± 0.74. In the assay on MCF-7 cells, this compound showed an inhibition at 10 µM of 33.2%.
For `CC(=C(c1ccc(Cl)cc1)c1ccc(OCCN2CCCCC2)cc1)c1ccccc1` [Compound 7, E/Z-1-(2-{4-[1-(4-Chloro-phenyl)-2-phenyl-propenyl]-phenoxy}-ethyl)-piperidine], on human ERα, the “Estrogenic Activity (relative β-galactosidase activity)” value is recorded as 2.87 ± 0.90. In the assay with MCF-7 cells, this compound had an inhibition at 10 µM of 56.4%.
Consider `COc1ccc(C(C)=C(c2ccc(Cl)cc2)c2ccc(OCCN3CCOCC3)cc2)cc1F` [Compound 18, E/Z-4-(2-{4-[1-(4-Chlorophenyl)-2-(3-fluoro-4-methoxyphenyl)-propenyl]-phenoxy}-ethyl)-morpholine], for which the “Estrogenic Activity (relative β-galactosidase activity)” value at human ERα is given as 1.76 ± 0.56. Besides, the “Growth Inhibition on MCF-7 (%)” value in the assay with MCF-7 cells is recorded as “No inhibition”.
For the compound `COc1ccc(C(C)=C(c2ccc(O)cc2)c2ccc(Cl)cc2)cc1F` [Compound 3, E/Z-4-[1-(4-Chlorophenyl)-2-(3-fluoro-4-methoxyphenyl)propenyl]-phenol], on human ERα, the EC50 was 40 nM and 40.1 nM; the “Estrogenic Activity (relative β-galactosidase activity)” value came out at 12.83 ± 2.72. Besides, in the assay on MCF-7 cells, the “Growth Inhibition on MCF-7 (%)” value is recorded as “No inhibition”.
On to `COc1cc(C(C)=C(c2ccc(Cl)cc2)c2ccc(OCCN3CCCCC3)cc2)ccc1F` [Compound 24, E/Z-1-(2-{4-[1-(4-Chlorophenyl)-2-(4-fluoro-3-methoxyphenyl)-propenyl]-phenoxy}-ethyl)-piperidine], for which the “Estrogenic Activity (relative β-galactosidase activity)” value at human ERα is 1.19 ± 0.20. Further, 10 µM produced 49.3% inhibition with MCF-7 cells.
As for `CC(=C(c1ccc(Cl)cc1)c1ccc(OCCCN(C)C)cc1)c1ccccc1` [Compound 5, E/Z-(3-{4-[1-(4-Chloro-phenyl)-2-phenyl-propenyl]-phenoxy}-propyl)-dimethyl-amine], the “Estrogenic Activity (relative β-galactosidase activity)” value at human ERα is listed as 2.25 ± 0.92. Besides, testing at 10 µM in the assay with MCF-7 cells gave an inhibition of 55%.
As to `CC(=C(c1ccc(Cl)cc1)c1ccc(OCCN2CCCC2)cc1)c1ccccc1` [Compound 6, E/Z-1-(2-{4-[1-(4-Chloro-phenyl)-2-phenyl-propenyl]-phenoxy}-ethyl)-pyrrolidine], on human ERα, the “Estrogenic Activity (relative β-galactosidase activity)” value is recorded as 2.88 ± 0.89. Further, in the assay with MCF-7 cells, the inhibition at 10 µM was 66.2%.
Taken in the same sequence, the figures for `COc1cc(C(C)=C(c2ccc(Cl)cc2)c2ccc(OCCN(C)C)cc2)ccc1F` [Compound 27, E/Z-(2-{4-[1-(4-Chlorophenyl)-2-(4-fluoro-3-methoxyphenyl)-propenyl]-phenoxy}-ethyl)-dimethyl-amine] were 1.15 ± 0.17 and 68.3%.
Take `COc1ccc(C(C)=C(c2ccc(Cl)cc2)c2ccc(OCCN3CCCCC3)cc2)cc1F` [Compound 17, E/Z-1-(2-{4-[1-(4-Chlorophenyl)-2-(3-fluoro-4-methoxyphenyl)-propenyl]-phenoxy}-ethyl)-piperidine]: at human ERα, it took 252 ± 8 nM to reach a half-maximal effect (EC50); the “Estrogenic Activity (relative β-galactosidase activity)” value was 7.28 and 7.28 ± 3.10. Moreover, in the assay with MCF-7 cells, at 10 µM the inhibition was 85% and it took 3340 nM to inhibit growth by half (GI50).
`COc1cc(C(C)=C(c2ccc(Cl)cc2)c2ccc(OCCN3CCCCCC3)cc2)ccc1F` [Compound 26, E/Z-1-(2-{4-[1-(4-Chlorophenyl)-2-(4-fluoro-3-methoxyphenyl)-propenyl]-phenoxy}-ethyl)-azepane]: at human ERα, the “Estrogenic Activity (relative β-galactosidase activity)” value amounted to 1.78 ± 0.64. The inhibition at 10 µM with MCF-7 cells is 36.5%.
With `COc1cc(C(C)=C(c2ccc(Cl)cc2)c2ccc(OCCN3CCOCC3)cc2)ccc1F` [Compound 25, E/Z-4-(2-{4-[1-(4-Chlorophenyl)-2-(4-fluoro-3-methoxyphenyl)-propenyl]-phenoxy}-ethyl)-morpholine], the “Estrogenic Activity (relative β-galactosidase activity)” value at human ERα turned out to be 1.31 ± 0.30. The compound further had an inhibition at 10 µM in the assay with MCF-7 cells of 2.75%.
